Test results reported in article PMC11947619, “Molecular mechanism of Mad2 conformational conversion promoted by the Mad2‐interaction motif of Cdc20” (Protein Science : A Publication of the Protein Society, 2025).

Target: T1, O‐Mad2^LL (Homo sapiens, UniProt Q13257, A115G/DEL109-114/P116S/R117G)
T1 construct: His6-DoubleStrep-TEV (N); made in house
Experiment: Time-resolved NMR: conversion / binding with O-Mad2^LL (loop-less)
Assay type: biochemical
Conditions: two-fold molar excess peptide, 25°C
Procedure: FIGURE 5 The dynamic β5‐αC loop and C‐terminal residues in O‐Mad2 modulate Mad2 conversion. The O‐ to C‐Mad2 conversion is slowed when the highly dynamic β5‐αC loop is truncated (O‐Mad2^LL) and eliminated in the absence of the C‐terminal ten residues (O‐Mad2^∆C10). Using the side chain resonances of Trp75 and Trp167 as reporters, Mad2 conversion was traced in a 24 h time course at 25°C. Cdc20^MIM‐111‐138 peptides were added at two‐fold molar excess to Mad2 (100 μM). Severe line broadening was observed during the conversion of O‐Mad2^LL, most likely due to dimerization of O‐Mad2^LL with the newly converted C‐Mad2^LL. NMR data for O‐Mad2^R133A with Cdc20^MIM‐111‐138 shown for comparison are from Fischer et al. ([2022]).
The cloning of human wild‐type Mad2 and the mutant Mad2^R133A by the USER® method (NEB) into the pRSFDuet‐1 vector (71341‐3, Sigma‐Aldrich) with a His6‐DoubleStrep‐TEV tag at its N‐terminus was described previously (Fischer et al., [2022]). For this study, Mad2 mutants were generated as follows. The Mad2^LL expression construct was generated from the wild‐type Mad2 expression vector (Fischer et al., [2022]) by replacing residues 109–117 (TAKDDSAPR) with GSG. Mad2^ΔC10 and Mad2^Δβ7/β8 were modified from wild‐type Mad2 expression construct by deleting residues 196–205 and 166–205, respectively. Mad2^LL/R133A was modified by substituting Ala for Arg133 from the Mad2^LL expression construct. Mad2^LL/ΔC10 was modified from Mad2^LL by deleting residues 196–205. Mad2^L13A/R133A was generated from the Mad2^R133A mutant. Site‐directed mutagenesis of Mad2 was completed using the QuikChangeTM Lightning Site‐Directed Mutagenesis Kit (Agilent) developed by Stratagene Inc. (La Jolla, CA).
All peptides were synthesized by Cambridge Research Biochemicals, UK. Peptides were dialyzed into 20 mM HEPES, pH 7.0, 100 mM NaCl, and 1 mM TCEP for NMR experiments. […]
Mad2LL (grey), Mad2∆C10 (green) and Mad2LL/∆C10 (purple). […] 15N{1H}‐ heteronuclear NOE were measured at 298 K. Regions that are highly dynamic are highlighted in yellow. e. […]

T1 sequence (Q13257 with tags, fused parts or gaps DEL109-114/A115G/P116S/R117G): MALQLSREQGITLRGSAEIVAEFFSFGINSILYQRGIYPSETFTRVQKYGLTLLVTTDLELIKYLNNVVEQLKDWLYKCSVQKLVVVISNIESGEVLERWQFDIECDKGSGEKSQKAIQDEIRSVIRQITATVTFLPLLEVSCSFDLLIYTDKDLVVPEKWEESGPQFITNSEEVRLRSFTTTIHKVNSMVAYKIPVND

- binding to Mad2^LL, early spectra (HSQC, spectra collected within 15 min): no binding
- slowing of conversion relative to O-Mad2^R133A with Cdc20^MIM-111-138 (O-Mad2^LL 100 μM): 8 times
- time for conversion of O-Mad2^LL to C-Mad2^LL:Cdc20^MIM (O-Mad2^LL 100 μM, Trp75/Trp167 reporters): ~ 250 min
Sequence: EHQKAWALNLNGFDVEEAKILRLSGKPQ [Cdc20^MIM‐111‐138, Cdc20^MIM peptide spanning Cdc20 residues 111–138]
